“And” between values parts separate entries of the source, which are not always exact repeats. Equal entries are not always repeated.
Key:
human fecal microbiota = assay: In vitro batch fermentation with human fecal microbiota; format: in vitro ADME; parameters: final concentration after 8 h of fermentation: reference not given here; settings: for bacterial metabolites detected: feces from three donors, 8 h
Experimental: Using a batch fermentation model of the human colon, 2-arylbenzofurans were incubated after the addition of human fecal bacteria from three donors. Samples were collected at 0, 2, 4, and 8 h and the effect of microbiota on tested 2-arylbenzofurans was determined by UHPLC/MS HRAM.
Medium was prepared from 225 mL of distilled water, 112.5 mL of macromineral solution, 56.25 μL of micromineral solution, 562.5 μL of 0.1% resazurin solution, and 1.125 g of tryptone. The macromineral solution was prepared from 7.14 g of Na2HPO4, 6.2 g of KH2PO4, 0.6 g of MgSO4, and up to 1 L of distilled water. The micromineral solution was made of 2.64 g of CaCl2, 2 g of MnCl2, CoCl2, 1.6 g of FeCl3, and up to 20 mL of distilled water. CO3 buffer was created by mixing 1 g of NH4HCO3, 8.75 g of NaHCO3, and distilled water up to 250 mL.
Phosphate buffer for fecal slurries was created by dissolving 1.77 g of KH2PO4 in 195 mL of distilled water and 3.62 g of Na2HPO4 in 305 mL of distilled water (both 1/15M). The acidity of the mixed phosphate buffer was adjusted to a neutral pH by hydrochloric acid. The reducing solution was created by mixing 125 mg of cysteine hydrochloride, 125 mg of Na2S, 0.8 mL of 1M NaOH, and distilled water up to 20 mL.
Mulberrofuran Y (1), moracin C (2), and mulberrofuran G (3) were dissolved in DMSO to a final concentration of 10 mg/mL. After boiling the fermentation medium and sodium phosphate buffer, both were cooled to 37 °C. To remove oxygen, the samples were purged with nitrogen gas (approximately 30 min). The pH of the medium was equilibrated to neutral pH using HCl. For each fermentation bottle, 17.18 mL of fermentation medium and 0.8 mL of reducing solution were transferred to create fermentation vials. Fecal slurry was prepared immediately after sampling from each donor by homogenizing the collected feces in a stomacher bag with phosphate buffer to produce a 25% fecal slurry. After filtration through the mesh, 2 mL of the filtered fecal slurry were added to each fermentation bottle. Finally, 20 μL of the tested compound or DMSO as a negative control were added. The bottles were incubated at 37 °C for 8 h with stirring at 100 strokes per minute. Aliquots of fecal suspensions were collected at 0, 2, 4, and 8 h, and stored at −80 °C until further analysis.
First, 400 μL sample of supernatant fluid were defrosted and centrifuged (5 min/15,000 RPM) and the pellet was erased. Supernatant was combined with 20 μL of ^13C6 trans-resveratrol in methanol (2 μg/mL), which was used as an internal standard. Samples were extracted 3 times with 2.5 mL of ethyl acetate and 2 mL of ultra-pure water. After liquid-liquid extraction, ethyl acetate was evaporated with nitrogen gas and redissolved in 1 mL of methanol (VWR Chemicals, Stribrna Skalice, Czech Republic) in combination with formic acid (Fisher Scientific, Merelbeke, Belgium) (1%).
(§1) The analysis was performed on an LC/MS system consisting of an Ultimate 3000 UPLC chromatograph Thermo Fisher Scientific (Waltham, MA, USA) coupled to an Impact II ultra-high resolution high mass accuracy mass spectrometer (HRAM) Q-TOF (Bruker Daltonics, Bremen, Germany) equipped with an electrospray ionization (ESI) source.
(§2) The separation was carried out on a Phenomenex F5 Kinetex column (1.7 μm 100 Å 100 × 2.1 mm) (Phenomenex, Torrance, CA, USA) by using a mobile phase consisting of 0.1% formic acid (solvent A) and methanol (solvent B). The binary gradient was run at a flow rate of 0.2 mL/min as follows: 0–3 min isocratic at 20% B, 3–6 min from 20% to 50% B, 6–15 min isocratic at 100% B, and 15–20 min isocratic at 20% B. The column oven was adjusted to 35 °C, and the injection volume was 5 μL.
For metabolite screening, the ESI source was set in both positive and negative mode. Semiquantitative analysis was performed in negative mode with the parameters listed in the Appendix A. Each compound was confirmed by MS/MS fragmentation with a collision energy voltage (20, 30, and 50 eV). […]

Caco-2 cell line = assay: Permeability and metabolism assay on Caco-2 cell line in Transwell plates; format: in vitro ADME, human; settings: for Apical side (unchanged parent compound) / Basolateral side (unchanged parent compound) / Cells (unchanged parent compound) / Transformed (converted or metabolized): of the initial 20 μM as 100%, after 4 h; for Transformed (converted or metabolized): remainder
Experimental: as §1, §2
For metabolite screening, the ESI source was set in both positive and negative mode. Semiquantitative analysis was performed in negative mode with the parameters listed in the Appendix A. Each compound was confirmed by MS/MS fragmentation with a collision energy voltage (20, 30, and 50 eV). Data acquisition was performed using HyStar 3.2 SR4, Otof series 4.0 (Bruker Daltonics, Bremen, Germany) and Chromeleon Xpress (Thermo Fisher Scientific, Waltham, MA, USA) software and the data obtained were analyzed by using DataAnalysis 4.3. (Bruker Daltonics, Bremen, Germany). Commercially available standards of mulberrofuran Y (1), moracin C (2), and mulberrofuran G (3), each at 9 concentration levels ranging from 0.5–500 ng/mL, were used for calibration. A list of the 2-arylbenzofurans monitored in the samples is given in the Appendix B.
The Caco-2 cell lines were purchased from the American Type Tissue Collection (Rockville, MD, USA). Caco-2 cells in Transwells at passage 25 were used. More information on cell culture and passaging is described in [17].
Cells were cultured in DMEM-F12 (Dulbecco’s modified Eagles medium—Nutrient Mixture F-12) supplemented with 10% FBS (fetal bovine serum), 1% nonessential amino acids, 1% penicillin, and streptomycin, all obtained from Sigma-Aldrich (Prague, Czech Republic) in humidified air containing 5% CO2. Cells were seeded at a density of 2.6 × 10^5 cells/cm in 24-wells. The inserts were pre-filled with 50 µL of medium before seeding the cells. After seeding, the basolateral side of the chamber was filled with 1 mL of DMEM, and cells were grown in a humidified atmosphere of 5% CO2 at 37 °C. Non-adherent cells were removed by removing the medium after 6 h of incubation and replaced with 0.5 mL of fresh DMEM. The culture medium was replaced seven times a week for 21 to 25 days prior to the transport experiment.
The filter inserts containing a monolayer of the Caco-2 cell line were washed three times with HBBS (Hanks’ Balanced Salt solution) heated to 37 °C and pH 7.4. The integrity of the cell monolayer was confirmed by measuring the transepithelial electrical resistance (TEER), which had to be at least 600 Ω. After adding 25 µM lucifer yellow, the plates were incubated at 37 °C in 5% CO2 atmosphere for 1 h with shaking (150 rpm). Using a Tecan Infinite M200 reader (Excitation/Emission wavelength 480 nm/530 nm), the plates were measured. Only plates with an integrity greater than 95% were used in the following experiment.
Initially, 500 µL of 20 µM test substance solutions were added to the apical side of each insert and 1000 µL of HBSS were added to the basolateral side. At the same time, 50 µL were taken immediately from the apical side at the time point of 0 h. For future analysis, basolateral sampling times of 0.5, 1, 1.5, 2, 3, and 4 h were chosen while placing the plates in the incubator and using an orbital shaker (150 rpm). In this experiment, 500 µL of sample were always taken from the basolateral side and replaced with an equal amount of pure HBSS. After 4 h, the apical side was simultaneously removed, and the inserts were washed three times with HBSS. […]

[1] = tested on: THP-1 human monocytic leukemic cell line; parameters: method as in PMID 24901948; settings: read-out: cytotoxic activity; cited from earlier work
COX = tested on: COX; parameters: method as in PMID 3097265; settings: cited from earlier work
[2] = parameters: method as in PMID 15636183; settings: cited from earlier work

SMILES: CC(C)=CCc1c(O)cc(-c2cc3ccc(O)cc3o2)cc1O [Moracin C (2), moracin C]
- final concentration after 8 h of fermentation (human fecal microbiota; donor D1): 66 ± 3%
- final concentration after 8 h of fermentation (human fecal microbiota; donor D2): 87 ± 10%
- bacterial metabolites detected (human fecal microbiota): No metabolites were detected
- Apical side (unchanged parent compound) (Caco-2 cell line): 0.7 ± 0.2%
- Basolateral side (unchanged parent compound) (Caco-2 cell line): 0 ± 0%
- Cells (unchanged parent compound) (Caco-2 cell line): 8.2 ± 0.5%
- Apical side (unchanged parent compound) (Caco-2 cell line; listed as moracin C (2)): 0.7 ± 0.2%
- Cells (unchanged parent compound) (Caco-2 cell line; listed as moracin C (2)): 8.2% and 8.2 ± 0.5%
- Transformed (converted or metabolized) (Caco-2 cell line): 91.1 ± 0.7%
- Transformed (converted or metabolized) (Caco-2 cell line; listed as moracin C (2)): 91.1 ± 0.7%
- IC50 [1]: 3.2 ± 0.13 µM

SMILES: COc1c(O)cc2oc(-c3cc(O)cc(O)c3)cc2c1C/C=C(\C)CCC=C(C)C [Mulberrofuran Y (1), mulberrofuran Y]
- final concentration after 8 h of fermentation (human fecal microbiota; donor D1): 25 ± 0%
- final concentration after 8 h of fermentation (human fecal microbiota; donor D2): 69 ± 8%
- bacterial metabolites detected (human fecal microbiota): No metabolites were detected
- became detectable on the basolateral side after (Caco-2 cell line; incubation time, basolateral sampling 0.5-4 h): 3 h
- Apical side (unchanged parent compound) (Caco-2 cell line): 8.9 ± 5.9%
- Basolateral side (unchanged parent compound) (Caco-2 cell line): 0 ± 0%
- Cells (unchanged parent compound) (Caco-2 cell line): 85.3 ± 19.9%
- Apical side (unchanged parent compound) (Caco-2 cell line; listed as mulberrofuran Y (1)): 8.9 ± 5.9%
- Basolateral side (unchanged parent compound) (Caco-2 cell line; listed as mulberrofuran Y (1)): no amount
- Cells (unchanged parent compound) (Caco-2 cell line; listed as mulberrofuran Y (1)): 85.3% and 85.3 ± 19.9%
- Transformed (converted or metabolized) (Caco-2 cell line): 5.8 ± 25.8%
- Transformed (converted or metabolized) (Caco-2 cell line; listed as mulberrofuran Y (1)): 5.8 ± 25.8%
- IC50 [1]: 4.8 ± 0.19 µM

SMILES: CC1=CC2c3c(O)cc(-c4cc5ccc(O)cc5o4)cc3OC3(c4ccc(O)cc4O)Oc4cc(O)ccc4C(C1)C23 (centres unmarked) [Mulberrofuran G (3), mulberrofuran G]
- concentration of parent compound after fermentation (human fecal microbiota; after 8 h, initial 10 μg/mL, in 2 donors): 5000 ng/mL
- concentration of parent compound, minimum (human fecal microbiota; at 2 h, initial 10 μg/mL, the one donor in which compound was stable): 9000 ng/mL
- concentration of parent compound after fermentation (human fecal microbiota; at 8 h, initial 10 μg/mL, the one donor in which compound was stable): 10000 ng/mL
- bacterial metabolites detected (human fecal microbiota): No metabolites were detected
- Apical side (unchanged parent compound) (Caco-2 cell line): 2.7 ± 0.5%
- Basolateral side (unchanged parent compound) (Caco-2 cell line): 0 ± 0%
- Cells (unchanged parent compound) (Caco-2 cell line): 14.0 ± 0.6%
- Apical side (unchanged parent compound) (Caco-2 cell line; listed as mulberrofuran G (3)): 2.7 ± 0.5%
- Basolateral side (unchanged parent compound) (Caco-2 cell line; listed as mulberrofuran G (3)): nothing
- Cells (unchanged parent compound) (Caco-2 cell line; listed as mulberrofuran G (3)): 14% and 14.0 ± 0.6%
- Transformed (converted or metabolized) (Caco-2 cell line): 83.3 ± 1.1%
- Transformed (converted or metabolized) (Caco-2 cell line; listed as mulberrofuran G (3)): 83.3 ± 1.1%
- COX inhibitor (COX): inhibitor
- antimicrobial effects [2]: potent antimicrobial effects
